The target of one assay is T1, legumain (Homo sapiens, UniProt Q99538).
T1 construct: made in house
T1 sequence (Q99538 18-433): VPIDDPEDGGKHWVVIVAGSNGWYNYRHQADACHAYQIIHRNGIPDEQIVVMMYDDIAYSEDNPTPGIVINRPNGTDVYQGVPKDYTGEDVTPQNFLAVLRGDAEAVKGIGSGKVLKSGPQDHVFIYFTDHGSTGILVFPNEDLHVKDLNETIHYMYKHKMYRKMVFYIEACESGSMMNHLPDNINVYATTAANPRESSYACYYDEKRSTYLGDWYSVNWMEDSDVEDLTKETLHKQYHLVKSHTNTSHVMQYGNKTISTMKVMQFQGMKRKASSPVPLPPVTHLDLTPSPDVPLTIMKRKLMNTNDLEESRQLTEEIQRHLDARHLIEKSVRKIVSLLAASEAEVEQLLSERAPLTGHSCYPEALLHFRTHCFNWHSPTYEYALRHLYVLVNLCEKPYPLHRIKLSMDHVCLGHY
The experiment in a line: Enzymatic activity assay, fluorogenic substrate Z-AAN-AMC. The format is biochemical. As to conditions: PPE1 5 µmol/L (Figure 4D). Here is the method:
(§1) To evaluate the influence of Bet_v_1 ligands on cathepsin S and legumain activities, 10 nmol/L of protease was incubated with 100 µmol/L of ligand (unless otherwise stated) and 50 µmol/L of fluorogenic substrate in digestion buffer (0.1 mol/L sodium acetate pH 5.0, 0.1 mol/L sodium chloride, 5 mmol/L EDTA, and 2 mmol/L DTT), as described in the Appendix [Link], [Link]. The effect of birch pollen extract (BPE) (20‐200 µg/mL) on the cathepsin S and legumain activities was assessed in parallel. The inhibitory effect of PPE1 was assessed by replacing DTT with 0.5 mmol/L TCEP. Activities of recombinant rat cathepsin B (provided by Dr Lukas Mach) and papain (Merck) at 10 nmol/L were assayed using Z‐FR‐AMC (Bachem) as a fluorogenic substrate.
For the detection of cathepsin or legumain activities in the microsomal fraction, 8 µg of microsomal extract was incubated with 50 µM fluorogenic substrate with or without inhibitor in assay buffer (100 mM citrate pH 4.8 and 2 mM DTT). The enzymatic reactions were carried out in a 50 µL reaction volume in a 96-half-well black flat bottom assay plate (Corning Inc., Corning, NY, USA) at 37°C. The fluorescence signal was recorded using a Tecan Infinite-200 plate reader (Tecan, Männedorf, Switzerland) at an excitation wavelength of 380 nm and emission wavelength of 460 nm for 15 min of continuous measurement with a 30-s interval reading. […]

The next assay concerns the target T2, cathepsin S (Homo sapiens, UniProt P25774).
T2 construct: made in house
Description: Enzymatic activity assay, fluorogenic substrate Z-VVR-AMC. The format is biochemical. On the procedure: as §1
For the detection of cathepsin or legumain activities in the microsomal fraction, 8 µg of microsomal extract was incubated with 50 µM fluorogenic substrate with or without inhibitor in assay buffer (100 mM citrate pH 4.8 and 2 mM DTT). The enzymatic reactions were carried out in a 50 µL reaction volume in a 96-half-well black flat bottom assay plate (Corning Inc., Corning, NY, USA) at 37°C. The fluorescence signal was recorded using a Tecan Infinite-200 plate reader (Tecan, Männedorf, Switzerland) at an excitation wavelength of 380 nm and emission wavelength of 460 nm for 15 min of continuous measurement with a 30-s interval reading. The fluorogenic substrates used for cathepsin S and legumain were Z-VVR-AMC and Z-AAN-AMC (Bachem, Bubendorf, Switzerland), respectively. The inhibitors used for cathepsin S and legumain were Z-FL-COCHO (Sigma-Aldrich, CA, USA) and Ac-YVAD-CMK (Bachem), respectively^11.

The target in the next assay is T3, Bet_v_1 (Betula pendula, UniProt P15494).
T3 construct: made in house
T3 sequence (P15494 1-160): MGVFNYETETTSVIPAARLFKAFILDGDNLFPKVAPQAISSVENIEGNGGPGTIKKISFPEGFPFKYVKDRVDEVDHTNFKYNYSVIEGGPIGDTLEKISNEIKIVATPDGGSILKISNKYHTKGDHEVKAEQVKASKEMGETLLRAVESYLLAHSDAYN
Description: NMR spectroscopy (1H-15N HSQC) binding confirmation. From the text: Surface acoustic wave (SAW) technology and NMR spectroscopy were used to observe the interaction of Bet_v_1 with the selected compounds, including determination of the dissociation constant (K d). The influence of ligand binding on the secondary structure elements and the thermal stability of Bet_v_1 was monitored using circular dichroism (CD, JASCO J‐815 spectropolarimeter, Jasco) and Fourier transform infrared (FTIR) spectroscopy (Tensor II FTIR system, Bruker Optics Inc). A detailed description of these methods is available (Appendix [Link], [Link]).
To validate the interactions determined by SAW, we used NMR spectroscopy to test the specific binding of PPE1, LTA, LPS, and Kdo2 to Bet_v_1 (Table 1, Figure S2). […] The commercially available PPA1 was used as a substitute for PPE1 to identify the phytoprostane binding site(s).
The NMR data were acquired with either a 600 or 800 MHz Agilent DD2 spectrometer with a cryogenically cooled probe using the pulse sequence gNhsqc. Bet v 1 assignments were taken from.^2 The experiments were performed under the following conditions: LTA: 45 µM Bet v 1 and 300 µM LTA in PBS, 10% ^2H2O, 60 µM DSS; PPE1: 25 µM Bet v 1 and 2 µM PPE1 in PBS, 5% ^2H-(d6) DMSO, 10% ^2H2O, 60 µM DSS; PPA1: 100 µM Bet v 1 and 302 µM PPA1 (Cayman Chemical, MI, USA) in PBS, 8.7% ^2H-(d6) DMSO, 10% ^2H2O, 60 µM DSS; LPS: 100 µM Bet v 1 and 400 µM LPS in PBS pH 7.4, 10% ^2H2O, 60 µM DSS. Kdo2: 100 µM Bet v 1 and 422 µM Kdo2 in PBS pH 7.0, 10% ^2H2O, 8.6% ^2H-(d6) DMSO, 60 µM DSS.

A further assay has as its target T4, papain (Carica papaya, UniProt P00784).
T4 construct: purchased Merck
T4 sequence (P00784 134-345): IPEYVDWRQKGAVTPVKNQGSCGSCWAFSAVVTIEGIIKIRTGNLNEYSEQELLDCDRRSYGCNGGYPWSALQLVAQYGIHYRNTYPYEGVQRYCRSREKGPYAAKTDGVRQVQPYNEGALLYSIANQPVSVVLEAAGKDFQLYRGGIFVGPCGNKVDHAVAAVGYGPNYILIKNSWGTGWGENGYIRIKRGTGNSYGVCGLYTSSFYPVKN
Description: Enzymatic activity assay, fluorogenic substrate Z-FR-AMC. The format is biochemical. The following applies: PPE1 5 µmol/L, 15 min (Figure 4A). On the procedure:
as §1

The target in assay [1] is T5, recombinant rat cathepsin B (Rattus norvegicus, UniProt P00787).
T5 construct: gift of Dr Lukas Mach
T5 sequence (P00787 80-339): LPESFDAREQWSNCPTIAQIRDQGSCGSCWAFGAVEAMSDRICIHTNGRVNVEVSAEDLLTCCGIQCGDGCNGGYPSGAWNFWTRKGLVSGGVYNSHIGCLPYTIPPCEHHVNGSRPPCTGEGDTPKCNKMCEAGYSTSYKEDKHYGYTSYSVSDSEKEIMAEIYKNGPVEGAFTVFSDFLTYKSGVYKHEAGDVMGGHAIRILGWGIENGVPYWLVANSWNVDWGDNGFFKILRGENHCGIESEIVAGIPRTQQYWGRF
Described as above. The format is biochemical. The following applies: PPE1 5 µmol/L, 15 min (Figure 4A). Here is the method: as §1

T2 sequence (P25774 115-331): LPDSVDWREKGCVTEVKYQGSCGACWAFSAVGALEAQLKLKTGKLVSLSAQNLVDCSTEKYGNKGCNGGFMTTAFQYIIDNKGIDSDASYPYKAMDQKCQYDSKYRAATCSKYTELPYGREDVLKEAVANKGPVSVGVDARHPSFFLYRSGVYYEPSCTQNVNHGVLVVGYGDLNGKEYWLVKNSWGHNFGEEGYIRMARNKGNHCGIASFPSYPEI

As to `CCC1C(=O)CC(O)C1/C=C/C(O)CCCCCCCC(=O)O` (centres unmarked) [PPE1, E1 phytoprostanes], the “legumain activity in the presence of DTT and TCEP” value at legumain is “no inhibitory effect”. Also, the “cathepsin S fluorogenic activity” value at cathepsin S (10 nmol/L protease, 100 µmol/L ligand, 50 µmol/L substrate, pH 5.0, 2 mmol/L DTT (Figure 3A)) is “specifically inhibited”; on cathepsin S (PPE1 5 µmol/L, 15 min (Figure 4A)), “inhibits”. The “cathepsin S activity in the presence of TCEP” value at cathepsin S (PPE1 5 µmol/L, 0.5 mmol/L TCEP instead of DTT (Figure 4D)) is listed as “completely abolished”. For the same molecule, the “NMR (binding confirmation, K d)” value at Bet_v_1 (15N-labeled Bet v 1, direct measurement of Kd prevented by intermediate exchange) is “low to sub‐µmol/L”. The “specific binding to Bet v 1 (1H-15N HSQC spectra)” value on Bet_v_1 (absence vs presence of compound) is “specifically binds”. For the same molecule, the papain fluorogenic activity result on papain is recorded as “inhibits”. The “rat cathepsin B fluorogenic activity” value in assay [1] is listed as “inhibits”.

The record behind these values is article PMC6910946, “Multiple roles of Bet v 1 ligands in allergen stabilization and modulation of endosomal protease activity” (Allergy, 2019).
